Results as given in patent publication US20210220367A1, “INHALABLE FORMULATION OF A SOLUTION CONTAINING GLYCOPYRROLATE AND OLODATEROL HYDROCHLORIDE” (priority 2020, published 2021).

Assay: Aerodynamic particle size distribution, Next Generation Pharmaceutical Impactor (NGI)
Type: physicochemical
Conditions: sample 2 (GB 1.13 mg/ml; pH 3.0), soft mist inhaler, NGI 30 L/minute, RH 90%, HPLC per active
Description: The aerodynamic particle size distribution was determined using a Next Generation Pharmaceutical Impactor (NGI). The soft mist inhaler was held close to the NGI inlet until no aerosol was visible. The flow rate of the NGI was set to 30 L/minute and was operated under ambient temperature and a relative humidity (RH) of 90%.
The solution of sample 2 was discharged into the NGI. Fractions of the dose were deposited at different stages of the NGI, in accordance with the particle size of the fraction. Each fraction was washed from the stage and analyzed using HPLC.
The particle size distribution was expressed in terms of mass median aerodynamic diameter (MMAD) and Geometric Standard Deviation (GSD). […] The sample is sample 2 as described in Example 4 (GB 1.13 mg/ml; pH 3.0). The aerodynamic particle size distribution of sample 2 was investigated by means of the original research device of TB-OH and a new generation of cascade impactor.

| Compound | GSD | MMAD (μm) |
| --- | --- | --- |
| (3RS)-3-[(2SR)-(2-cyclopentyl-2-hydroxy-2-penylacetyl)oxy]-1,1-dimethlypyrrolidinium bromide [Glycopyrrolate] | 1.77 | 4.05 μm |
| COc1ccc(CC(C)(C)NC[C@H](O)c2cc(O)cc3c2OCC(=O)N3)cc1.Cl [Olodaterol hydrochloride, 2H-1,4-Benzoxazin-3H(4H)-one, 6-hydroxy-8-[(1R)-1-hydroxy-2-[[2-(4-methoxyphenyl)-1,1-dimethylethyl]-amino]ethyl], monohydrochloride] | 1.79 | 4.01 μm |
